Laboratory results from US11185593B2, “Alkylating agent for alkylating target with driver oncogene mutation” (Chiba Prefecture, priority 2013, dated 2021).

Legend:
Assay type in all cases: cell-based
NB69 cells = assay: Cell growth measurement test, 72 hours; settings: Homo sapiens, NB69, without MYCN amplification, 0.3 to 300 nM
MCF7 cells = assay: Cytotoxicity test, Cell Counting Kit-8, 72 hours; settings: Homo sapiens, MCF7, breast cancer cells, 0.3 to 300 nM
Method: (§1) The experiment was carried out in the same manner as that in the case of using KR12. The cells used in the experiment were MCF7 cells and MDA-MB-231 cells. These cells were cultured in a DMEM, 10% FBS and 1% Pen/St medium, and in an RPMI1640, 10% FBS and 1% Pen/St medium, respectively. The cells of each type were seeded in each well of a 96-well plate at a cell density of 1000 cells/50 μl/well, and were then cultured under conditions of 37° C., 5% CO2, and saturated humidity for 24 hours. Thereafter, a reagent was diluted with a medium (final concentration: 1, 3, 10, 30, and 100 nM), and the diluted reagent was then added to the cultured cells in an amount of 50 μl/well, and the obtained mixture was then blended. The thus obtained mixture was cultured again under conditions of 37° C., 5% CO2, and saturated humidity for 72 hours. Thereafter, Cell Counting Kit-8 (DOJINDO) was added to the obtained culture in an amount of 10 μl/well, and the thus obtained mixture was blended and was then cultured under conditions of 37° C., 5% CO2, and saturated humidity for 2 hours. The absorbance was measured using Microplate Reader MTP-310 Lab (COLONA ELECTORIC), and the IC50 value was then calculated.

HDF cells = assay: Cell growth measurement test, 72 hours; settings: fibroblasts, 0.3 to 300 nM
IMR-32 cells = assay: Cytotoxicity test, Cell Counting Kit-8, 72 hours; settings: Homo sapiens
Method: as §1, with “Kelly cells, SK-N-SH cells, IMR-32 cells, SK-N-AS cells,” for “MCF7 cells”
as §1, with “IMR-32” for “MCF7”, “TGW” for “MDA-MB-231”

TGW cells = assay: Cytotoxicity test, Cell Counting Kit-8, 72 hours
Method: as §1, with “IMR-32” for “MCF7”, “TGW” for “MDA-MB-231”

HT29 cells = assay: Cell growth measurement test, 72 hours; settings: Homo sapiens, HT-29, HT29, colon cancer cells, 0.3 to 300 nM
[1] = tested on: IMR-32 cells (MYCN, 25 copies); assay: Cell growth curve, Incucyte culture time-lapse microscope; settings: IMR-32, 1 to 100 nM, FIG. 32
Method: (§2) The cells were seeded in each well of a 96-well plate at a cell density of 1000 cells/50 μl/well, and were then cultured under conditions of 37° C., 5% CO2, and saturated humidity for 24 hours. On the following day, the culture media was replaced with a culture media, to which a DMSO control, or 1 nM, 3 nM, 10 nM, 30 nM or 100 nM MYCNA1 had been added, and the resulting cells were then observed under an Incucyte culture time-lapse microscope (Essen Instruments, Ann Arbor, Mich.) every 6 hours. A growth curve was produced from an imaging plate using Incucyte system (Essen Instruments, Ann Arbor, Mich.). The cells used in the experiment were neuroblastoma cell lines having MYCN amplification, IMR-32 cells (MYCN, 25 copies) and TGW cells (MYCN, 60 copies). The cells of each type were cultured in a DMEM, 10% FBS and 1% Pen/St medium, and in an RPMI1640, 10% FBS and 1% Pen/St medium, respectively.

[2] = tested on: TGW cells (MYCN, 60 copies); assay: as above; settings: 1 to 100 nM, FIG. 32
Method: as §2

Row | Compound | IC50 (NB69 cells) | IC50 (MCF7 cells) | IC50 (HDF cells) | IC50 (IMR-32 cells; IMR-32, IMR32, with MYCN amplification, 0.3 to 300 nM) | IC50 (TGW cells; TGW, with MYCN amplification, 0.3 to 300 nM) | IC50 (HT29 cells) | cell growth (growth curve) [1] | cell growth (growth curve) [2] | IC50 (IMR-32 cells; IMR-32 cells, 1 to 100 nM, FIG. 33) | IC50 (TGW cells; TGW cells, 1 to 100 nM, FIG. 33)
1 | CC(=O)Nc1cn(C)c(C(=O)Nc2cn(C)c(C(=O)Nc3cn(C)c(C(=O)NCCC(=O)Nc4cn(C)c(C(=O)Nc5cc(C(=O)Nc6cc(C(=O)NCCCC(=O)Nc7cn(C)c(C(=O)Nc8cn(C)c(C(=O)Nc9cc(C(=O)NCCC(=O)Nc%10cc(C(=O)Nc%11ccc%12[nH]c(C(=O)N%13CC(CCl)c%14c%13cc(O)c%13ccccc%14%13)cc%12c%11)n(C)c%10)n(C)c9)n8)n7)n(C)c6)n(C)c5)n4)n3)n2)n1 (stereo not shown) [MYCNA3] | 77 nM | 152 nM | 56.6 nM | 1.1 nM | 3.7 nM | 240 nM |  |  |  | 
2 | CC(=O)Nc1cn(C)c(C(=O)Nc2cc(C(=O)Nc3cc(C(=O)NCCC(=O)Nc4cn(C)c(C(=O)Nc5cc(C(=O)NCCCC(=O)Nc6cc(C(=O)Nc7cc(C(=O)NCCC(=O)Nc8cc(C(=O)Nc9ccc%10[nH]c(C(=O)N%11CC(CCl)c%12c%11cc(O)c%11ccccc%12%11)cc%10c9)n(C)c8)n(C)c7)n(C)c6)n(C)c5)n4)n(C)c3)n(C)c2)n1 (stereo not shown) [MYCNA1] |  |  |  |  |  |  | suppressed by MYCNA1 in a concentration-dependent manner | suppressed by MYCNA1 in a concentration-dependent manner | 9.7 nM | 12.9 nM
